Data reported in ChEMBL document CHEMBL1649312, “Absence of association between piperaquine in vitro responses and polymorphisms in the pfcrt, pfmdr1, pfmrp, and pfnhe genes in Plasmodium falciparum” (Antimicrob Agents Chemother, 2010).

Tests used:
Assay type in all cases: functional, organism-based
Plasmodium falciparum [1] = assay: Antimalarial activity against Plasmodium falciparum IMT 31 assessed as inhibition of [3H] incorporation after 48 hrs by scintillation counter
Plasmodium falciparum [2] = assay: Antimalarial activity against Plasmodium falciparum IMT 8425 assessed as inhibition of [3H] incorporation after 48 hrs by scintillation counter
Plasmodium falciparum [3] = assay: Antimalarial activity against Plasmodium falciparum FCR3 assessed as inhibition of [3H] incorporation after 48 hrs by scintillation counter
Plasmodium falciparum [4] = assay: Antimalarial activity against Plasmodium falciparum IMT Vol harboring Ppcrt M74I, N75E, K76T, A220S, Q271E, N326S mutant gene, Pmdr1 N86Y mutant gene and Pfmrp H191Y and S437A mutant gene assessed as incorporation of [3]H hypoxanthine after 48 hrs by scintillation counter
Plasmodium falciparum [5] = assay: Antimalarial activity against Plasmodium falciparum IMT K2 assessed as inhibition of [3H] incorporation after 48 hrs by scintillation counter
Plasmodium falciparum [6] = assay: Antimalarial activity against Plasmodium falciparum IMT L1 assessed as inhibition of [3H] incorporation after 48 hrs by scintillation counter
Plasmodium falciparum [7] = assay: Antimalarial activity against Plasmodium falciparum FCR3 harboring Ppcrt M74I, N75E, K76T, A220S, Q271E, N326S and I356T mutant gene, Pmdr1 N86Y mutant gene and Pfmrp H191Y and S437A mutant gene assessed as incorporation of [3]H hypoxanthine after 48 hrs by scintillation counter; settings: FCR3, 48 h
Plasmodium falciparum [8] = assay: Antimalarial activity against Plasmodium falciparum IMT A4 assessed as inhibition of [3H] incorporation after 48 hrs by scintillation counter
Plasmodium falciparum [9] = assay: Antimalarial activity against Plasmodium falciparum IMT 10354 assessed as inhibition of [3H] incorporation after 48 hrs by scintillation counter
Plasmodium falciparum [10] = assay: Antimalarial activity against Plasmodium falciparum D6 harboring Ppcrt I371R mutant gene assessed as incorporation of [3]H hypoxanthine after 48 hrs by scintillation counter; settings: D6, 48 h
Plasmodium falciparum [11] = assay: Antimalarial activity against Plasmodium falciparum IMT 9881 harboring Ppcrt I371R mutant gene assessed as incorporation of [3]H hypoxanthine after 48 hrs by scintillation counter; settings: IMT 9881, 48 h
Plasmodium falciparum [12] = assay: Antimalarial activity against Plasmodium falciparum 106/1 harboring Ppcrt M74I, N75E, K76T, A220S, Q271E, N326S and I356T mutant gene, Pmdr1 N86Y mutant gene and Pfmrp H191Y and S437A mutant gene assessed as incorporation of [3]H hypoxanthine after 48 hrs by scintillation counter; settings: 106/1, 48 h
Plasmodium falciparum [13] = assay: Antimalarial activity against Plasmodium falciparum PA harboring Ppcrt M74I, N75E, K76T, A220S, Q271E, N326S and I356T mutant gene, Pmdr1 N86Y mutant gene and Pfmrp H191Y and S437A mutant gene assessed as incorporation of [3]H hypoxanthine after 48 hrs by scintillation counter
Plasmodium falciparum [14] = assay: Antimalarial activity against Plasmodium falciparum HB3 harboring Ppcrt I371R mutant gene and Pfmdr1 Y184F mutant gene assessed as incorporation of [3]H hypoxanthine after 48 hrs by scintillation counter; settings: HB3, 48 h
Plasmodium falciparum [15] = assay: Antimalarial activity against Plasmodium falciparum IMT 9881 assessed as inhibition of [3H] incorporation after 48 hrs by scintillation counter
Plasmodium falciparum [16] = assay: Antimalarial activity against Plasmodium falciparum IMT 16332 harboring Ppcrt M74I, N75E, K76T, A220S, Q271E mutant gene, Pmdr1 N86Y mutant gene assessed as incorporation of [3]H hypoxanthine after 48 hrs by scintillation counter; settings: IMT 16332, 48 h
Plasmodium falciparum [17] = assay: Antimalarial activity against Plasmodium falciparum IMT 10500 assessed as inhibition of [3H] incorporation after 48 hrs by scintillation counter
Plasmodium falciparum [18] = assay: Antimalarial activity against Plasmodium falciparum PA assessed as inhibition of [3H] incorporation after 48 hrs by scintillation counter
Plasmodium falciparum [19] = assay: Antimalarial activity against Plasmodium falciparum W2 assessed as inhibition of [3H] incorporation after 48 hrs by scintillation counter
Plasmodium falciparum [20] = assay: Antimalarial activity against Plasmodium falciparum IMT K4 assessed as inhibition of [3H] incorporation after 48 hrs by scintillation counter
Plasmodium falciparum [21] = assay: Antimalarial activity against Plasmodium falciparum IMT 10336 assessed as inhibition of [3H] incorporation after 48 hrs by scintillation counter
Plasmodium falciparum [22] = assay: Antimalarial activity against Plasmodium falciparum IMT Vol assessed as inhibition of [3H] incorporation after 48 hrs by scintillation counter
Plasmodium falciparum [23] = assay: Antimalarial activity against Plasmodium falciparum IMT 10500 harboring Pfcrt Q271E mutant gene and Ppcrt I371R mutant gene and Pfnhe-1 ms4760 microsatellite mutant assessed as incorporation of [3]H hypoxanthine after 48 hrs by scintillation counter; settings: IMT 10500, 48 h
Plasmodium falciparum [24] = assay: Antimalarial activity against Plasmodium falciparum IMT 8425 harboring Ppcrt I371R mutant gene and Pfnhe-1 ms4760 microsatellite mutant assessed as incorporation of [3]H hypoxanthine after 48 hrs by scintillation counter; settings: IMT 8425, 48 h
Plasmodium falciparum [25] = assay: Antimalarial activity against Plasmodium falciparum IMT 10336 harboring Pfcrt Q271E mutant gene and Ppcrt I371R mutant gene assessed as incorporation of [3]H hypoxanthine after 48 hrs by scintillation counter; settings: IMT 10336, 48 h
Plasmodium falciparum [26] = assay: Antimalarial activity against Plasmodium falciparum FCM29 assessed as inhibition of [3H] incorporation after 48 hrs by scintillation counter
Plasmodium falciparum [27] = assay: Antimalarial activity against Plasmodium falciparum IMT Bres assessed as inhibition of [3H] incorporation after 48 hrs by scintillation counter
Plasmodium falciparum [28] = assay: Antimalarial activity against Plasmodium falciparum D6 assessed as inhibition of [3H] incorporation after 48 hrs by scintillation counter
Plasmodium falciparum [29] = assay: Antimalarial activity against Plasmodium falciparum IMT K4 harboring Ppcrt M74I, N75E, K76T, A220S, Q271E, N326S mutant gene, Pmdr1 S1034C, N1042D mutant gene and Pfmrp H191Y and S437A mutant gene assessed as incorporation of [3]H hypoxanthine after 48 hrs by scintillation counter; settings: IMT K4, 48 h
Plasmodium falciparum [30] = assay: Antimalarial activity against Plasmodium falciparum IMT L1 harboring Ppcrt M74I, N75E, K76T, A220S, Q271E mutant gene, Pmdr1 N86Y mutant gene and Pfmrp H191Y and S437A mutant gene assessed as incorporation of [3]H hypoxanthine after 48 hrs by scintillation counter; settings: IMT L1, 48 h
Plasmodium falciparum [31] = assay: Antimalarial activity against Plasmodium falciparum FCM29 harboring Ppcrt M74I, N75E, K76T, A220S, Q271E, N326S and I356T mutant gene, Pmdr1 N86Y mutant gene and Pfmrp H191Y and S437A mutant gene assessed as incorporation of [3]H hypoxanthine after 48 hrs by scintillation counter; settings: FCM29, 48 h
Plasmodium falciparum [32] = assay: Antimalarial activity against Plasmodium falciparum IMT K14 assessed as inhibition of [3H] incorporation after 48 hrs by scintillation counter
Plasmodium falciparum [33] = assay: Antimalarial activity against Plasmodium falciparum 3D7 harboring Ppcrt I371R mutant gene and Pfnhe-1 ms4760 microsatellite mutant assessed as incorporation of [3]H hypoxanthine after 48 hrs by scintillation counter; settings: 3D7, 48 h
Plasmodium falciparum [34] = assay: Antimalarial activity against Plasmodium falciparum 3D7 assessed as inhibition of [3H] incorporation after 48 hrs by scintillation counter
Plasmodium falciparum [35] = assay: Antimalarial activity against Plasmodium falciparum IMT 31 harboring Ppcrt I371R mutant gene assessed as incorporation of [3]H hypoxanthine after 48 hrs by scintillation counter; settings: IMT 31, 48 h
Plasmodium falciparum [36] = assay: Antimalarial activity against Plasmodium falciparum W2 harboring Ppcrt M74I, N75E, K76T, A220S, Q271E, N326S and I356T mutant gene, Pmdr1 N86Y mutant gene and Pfmrp H191Y and S437A mutant gene assessed as incorporation of [3]H hypoxanthine after 48 hrs by scintillation counter; settings: W2, 48 h
Plasmodium falciparum [37] = assay: Antimalarial activity against Plasmodium falciparum IMT A4 harboring Ppcrt M74I, N75E, K76T, […], Q271E, N326S and I356T mutant gene, Pmdr1 Y184F, N1042D, D1246Y mutant gene assessed as incorporation of [3]H hypoxanthine after 48 hrs by scintillation counter; settings: IMT A4, 48 h
Plasmodium falciparum [38] = assay: Antimalarial activity against Plasmodium falciparum IMT 10354 harboring Ppcrt M74I, N75E, K76T, A220S mutant gene, Pmdr1 D1246Y mutant gene assessed as incorporation of [3]H hypoxanthine after 48 hrs by scintillation counter; settings: IMT 10354, 48 h
Plasmodium falciparum [39] = assay: Antimalarial activity against Plasmodium falciparum IMT Guy harboring Ppcrt K76T, A220S, N326D and I371R mutant gene, Pmdr1 […], 1042D and D1246Y, mutant gene and Pfmrp H191Y and S437A mutant gene and Pfnhe-1 ms4760 microsatellite mutant assessed as incorporation of [3]H hypoxanthine after 48 hrs by scintillation counter
Plasmodium falciparum [40] = assay: Antimalarial activity against Plasmodium falciparum IMT K2 harboring Ppcrt M74I, N75E, K76T, A220S, Q271E, N326S mutant gene, Pmdr1 S1034C, N1042D mutant gene and Pfmrp H191Y and S437A mutant gene assessed as incorporation of [3]H hypoxanthine after 48 hrs by scintillation counter; settings: IMT K2, 48 h
Plasmodium falciparum [41] = assay: Antimalarial activity against Plasmodium falciparum IMT K14 harboring Ppcrt M74I, N75E, K76T, A220S, Q271E, N326S mutant gene, Pmdr1 Y184F, S1034C, N1042D, D1246Y mutant gene and Pfmrp H191Y and S437A mutant gene assessed as incorporation of [3]H hypoxanthine after 48 hrs by scintillation counter; settings: IMT K14, 48 h
Plasmodium falciparum [42] = assay: Antimalarial activity against Plasmodium falciparum IMT Bres harboring Ppcrt M74I, N75E, K76T, A220S, Q271E, N326S and I356T mutant gene, Pmdr1 N86Y mutant gene and Pfmrp H191Y and S437A mutant gene assessed as incorporation of [3]H hypoxanthine after 48 hrs by scintillation counter
Plasmodium falciparum [43] = assay: Antimalarial activity against Plasmodium falciparum IMT 16332 assessed as inhibition of [3H] incorporation after 48 hrs by scintillation counter

**Q.** What does the source list for `C[C@H]1[C@@H](O)O[C@@H]2O[C@@]3(C)CC[C@H]4[C@H](C)CC[C@@H]1[C@@]24OO3` [ARTENIMOL]?
**A.** IC50 (Plasmodium falciparum [1]): 1.7 nM; IC50 (Plasmodium falciparum [2]): 1.7 nM; IC50 (Plasmodium falciparum [3]): 1.6 nM; IC50 (Plasmodium falciparum [4]): 1.2 nM; IC50 (Plasmodium falciparum [5]): 1.2 nM; IC50 (Plasmodium falciparum [6]): 0.9 nM; IC50 (Plasmodium falciparum [7]): 1.6 nM; IC50 (Plasmodium falciparum [8]): 1.5 nM; IC50 (Plasmodium falciparum [9]): 0.4 nM; IC50 (Plasmodium falciparum [10]): 1.4 nM; IC50 (Plasmodium falciparum [11]): 3.5 nM; IC50 (Plasmodium falciparum [12]): 5.8 nM; IC50 (Plasmodium falciparum [13]): 1.4 nM; IC50 (Plasmodium falciparum [14]): 3 nM; IC50 (Plasmodium falciparum [15]): 3.5 nM; IC50 (Plasmodium falciparum [16]): 1.1 nM; IC50 (Plasmodium falciparum [17]): 3.3 nM; IC50 (Plasmodium falciparum [18]): 1.4 nM; IC50 (Plasmodium falciparum [19]): 3 nM; IC50 (Plasmodium falciparum [20]): 3.4 nM; IC50 (Plasmodium falciparum [21]): 1.6 nM; IC50 (Plasmodium falciparum [22]): 1.2 nM; IC50 (Plasmodium falciparum [23]): 3.3 nM; IC50 (Plasmodium falciparum [24]): 1.7 nM; IC50 (Plasmodium falciparum [25]): 1.6 nM; IC50 (Plasmodium falciparum [26]): 1.3 nM; IC50 (Plasmodium falciparum [27]): 1.4 nM; IC50 (Plasmodium falciparum [28]): 1.4 nM; IC50 (Plasmodium falciparum [29]): 3.4 nM; IC50 (Plasmodium falciparum [30]): 0.9 nM; IC50 (Plasmodium falciparum [31]): 1.3 nM; IC50 (Plasmodium falciparum [32]): 2.1 nM; IC50 (Plasmodium falciparum [33]): 2.8 nM; IC50 (Plasmodium falciparum [34]): 2.8 nM; IC50 (Plasmodium falciparum [35]): 1.7 nM; IC50 (Plasmodium falciparum [36]): 3 nM; IC50 (Plasmodium falciparum [37]): 1.5 nM; IC50 (Plasmodium falciparum [38]): 0.4 nM; IC50 (Plasmodium falciparum [39]): 1.8 nM; IC50 (Plasmodium falciparum [40]): 1.2 nM; IC50 (Plasmodium falciparum [41]): 2.1 nM; IC50 (Plasmodium falciparum [42]): 1.4 nM; IC50 (Plasmodium falciparum [43]): 1.1 nM
